This experiment addresses T1, SOS1 binding to KRAS G12C (Homo sapiens, UniProt Q07889).
T1 construct: consisting of amino acid residues 564 to 1049 which are the catalytic domain; purchased Reaction Biology Corporation MSC-11-502 (SOS1-Strep); MSC-11-538 (KRAS G12C)
T1 sequence (Q07889 564-1049): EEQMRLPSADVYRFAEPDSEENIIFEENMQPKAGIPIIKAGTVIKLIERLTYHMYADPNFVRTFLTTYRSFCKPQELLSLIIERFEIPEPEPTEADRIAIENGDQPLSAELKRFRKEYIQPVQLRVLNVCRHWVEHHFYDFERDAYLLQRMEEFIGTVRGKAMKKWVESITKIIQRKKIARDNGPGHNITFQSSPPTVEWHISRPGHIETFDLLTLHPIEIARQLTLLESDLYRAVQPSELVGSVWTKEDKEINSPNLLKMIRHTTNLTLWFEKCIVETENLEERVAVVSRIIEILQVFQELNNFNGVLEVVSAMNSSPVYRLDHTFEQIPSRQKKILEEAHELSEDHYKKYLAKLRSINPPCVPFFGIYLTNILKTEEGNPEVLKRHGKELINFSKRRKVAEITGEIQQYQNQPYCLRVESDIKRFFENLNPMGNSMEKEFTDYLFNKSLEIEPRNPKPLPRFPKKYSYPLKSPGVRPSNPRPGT
The experiment is described as follows: SOS1 GTP substitution inhibition test (HTRF/TR-FRET, KRAS G12C-SOS1 binding inhibitory ability). Format: biochemical. The settings on record: HTRF, GST-KRAS G12C (2-169), SOS1-Strep (564-1049), 1.6, 8, 40, 200, 1,000 nM. The method, then: In order to determine whether the substitution function of SOS1 binding to KRAS G12C is inhibited by the above-described example compounds, a homogeneous time-resolved fluorescence (HTRF) test was performed using G12C(#MSC-11-538) and SOS1-Strep(#MSC-11-502) purchased from Reaction Biology Corporation (MA, USA). The activity of SOS1 enzyme was determined by measuring the amount of GTP bound to KRAS G12C proteins, using the principle of time-resolved fluorescence energy transfer (TR-FRET). Based on the principle that terbium bound to the GST-binding antibody of the GST-KRAS G12C protein acts as a donor of fluorescence resonance energy transfer (FRET), and the GTP bound to the KRAS G12C protein is labeled with the fluorescent agent DY-647P1 and acts as a receiver, when the more GTP is bound to the KRAS G12C protein by the substitution reaction of SOS1 according to this test, the higher HTRF or FRET signal is measured. To summarize, glutathione S-transferase (GST)-tagged KRAS G12C proteins (consisting of amino acid residues 2 to 169) required for the reaction, streptavidin-tagged SOS1 proteins (consisting of amino acid residues 564 to 1049 which are the catalytic domain), anti-GST antibody (#61[…]) purchased from CISBIO corporation, nucleic acid (#NU-820-647P1) purchased from Jena Bioscience GmbH were mixed in a buffer solution formed from 10 mM HEPES pH7.4, 150 mM NaCl, 5 mM MgCl2, and 1 mM dithiothreitol (DTT), and the mixture was added to a 384-well plate and reacted at room temperature. Next, FRET signals were measured with a Perkin Elmer Envision microplate reader. In this case, an excitation signal (excitation) was measured at 320 nm, and an emission signal (emission) was measured at 615/665 nm. The fluorescence measurement value when the SOS1 protein was not included was calculated as a background signal value, and the background signal value was subtracted from all of the measured HTRF values. The fluorescence measurement value when the synthesized compound was not included was measured as a control value, and this value was selected as a reference point of 100%. For each of the example compounds, fluorescence was measured at concentrations of 1.6, 8, 40, 200, and 1,000 nM (5 points, 5-fold), and the 50% activity inhibition value (IC50) of each of the compounds was calculated using GraphPad Prism. When the IC50 value was 50 nM or less, the inhibitory ability was denoted as +++. When the IC50 value was more than 50 nM and 100 nM or less, the inhibitory ability was denoted as ++. When the IC50 value was more than 100 nM, the inhibitory ability was denoted as +.
In general terms: In TR-FRET formats the signal depends on donor and acceptor labels being close together.

The term IC50 denotes the concentration that gives 50% inhibition. High values mean weaker potency, low ones greater potency.

The structures appear in SMILES notation.

`Cc1nc(N[C@H](C)c2cc(N)cc(C(F)(F)F)c2)c2cc(NC3CCOCC3)c(C(=O)N3CCOCC3)cc2n1` [Example 48, (R)-(4-((1-(3-amino-5-(trifluoromethyl)phenyl)ethyl)amino)-2-methyl-6-((tetrahydro-2H-pyran-4-yl)amino)quinazoline-7-yl)(morpholino)methanone] displayed an IC50 above 100 nM.
`CNc1cc2c(N[C@H](C)c3cc(N)cc(C(F)(F)F)c3)nc(C)nc2cc1CN1CCOCC1` [Example 49, (R)-N^4-(1-(3-amino-5-(trifluoromethyl)phenyl)ethyl)-N^6,2-dimethyl-7-(morpholinomethyl)quinazoline-4,6-diamine] registered a half-inhibitory concentration (IC50) of 50 to 100 nM.
Compound `CNc1cc2c(N[C@H](C)c3cc(N)cc(C(F)(F)F)c3F)nc(C)nc2cc1C(=O)N1CCOCC1` [Example 50, (R)-(4-((1-(5-amino-2-fluoro-3-(trifluoromethyl)phenyl)ethyl)amino)-2-methyl-6-(methylamino)quinazoline-7-yl)(morpholino)methanone] gave an IC50 of at most 50 nM.
To `CNc1cc2c(N[C@H](C)c3cc(N)cc(C(F)F)c3)nc(C)nc2cc1C(=O)N1CCOCC1` [Example 51, (R)-(4-((1-(3-amino-5-(difluoromethyl)phenyl)ethyl)amino)-2-methyl-6-(methylamino)quinazoline-7-yl)(morpholino)methanone] belongs at most 50 nM.
In the case of `CCNc1cc2c(N[C@H](C)c3cc(N)cc(C(F)F)c3F)nc(C)nc2cc1C(=O)N1CCOCC1` [Example 52, (R)-(4-((1-(5-amino-3-(difluoromethyl)-2-fluorophenyl)ethyl)amino)-6-(ethylamino)-2-methylquinazoline-7-yl)(morpholino)methanone], the IC50 lay in the range of 50 to 100 nM.
`CNc1cc2c(N[C@H](C)c3cc(N)cc(C(F)(F)F)c3)nc(C)nc2cc1C(=O)N1CCSC1` [Example 53, (R)-(4-((1-(3-amino-5-(trifluoromethyl)phenyl)ethyl)amino)-2-methyl-6-(methylamino)quinazoline-7-yl)(thiazolidine-3-yl)methanone] yielded an IC50 of at most 50 nM.
To `CNc1cc2c(N[C@H](C)c3cc(N)cc(-c4ccoc4)c3)nc(C)nc2cc1C(=O)N1CCOCC1` [Example 54, (R)-(4-((1-(3-amino-5-(furan-3-yl)phenyl)ethyl)amino)-2-methyl-6-(methylamino)quinazolin-7-yl)(morpholino)methanone] belongs 50 to 100 nM.
In turn, `Cc1nc(N[C@H](C)c2cc(N)cc(C(F)F)c2F)c2cc(NC(C)C)c(C(=O)N3CCOCC3)cc2n1` [Example 55, (R)-4-((1-(5-amino-3-(difluoromethyl)-2-fluorophenyl)ethyl)amino)-6-(isopropylamino)-2-methylquinazoline-7-(yl)(morpholino)methanone] showed an IC50 of at most 50 nM.
With `COCCNc1cc2c(N[C@H](C)c3cc(N)cc(C(F)F)c3F)nc(C)nc2cc1C(=O)N1CCOCC1` [Example 56, (R)-(4-((1-(5-amino-3-(difluoromethyl)-2-fluorophenyl)ethyl)amino)-6-((2-methoxyethyl)amino)-2-methylquinazolin-7-yl)(morpholino)methanone] the figure was at most 50 nM.
To `CNc1cc2c(N[C@H](C)c3cc(N)cc(C(F)(F)F)c3)nc(C)nc2cc1C(=O)N1CCN(C)CC1` [Example 57, (R)-(4-((1-(3-amino-5-(trifluoromethyl)phenyl)ethyl)amino)-2-methyl-6-(methylamino)quinazoline-7-yl)(4-methylpiperazin-1-yl)methanone] belongs 50 to 100 nM.
Consider `CNc1cc2c(N[C@H](C)c3cc(N)cc(C(F)(F)F)c3)nc(C)nc2cc1C(=O)N1CC2COCC2C1` (stereo partly drawn) [Example 58, (4-(((R)-1-(3-amino-5-(trifluoromethyl)phenyl)ethyl)amino)-2-methyl-6-(methylamino)quinazoline-7-yl)(tetrahydro-1H-furo[3,4-c]pyrrol-5(3H)-yl)methanone], for which the IC50 was at most 50 nM.
With `CNc1cc2c(N[C@H](C)c3cc(N)cc(C(F)(F)F)c3)nc(C)nc2cc1C(=O)N1CCS(=O)(=O)CC1` [Example 59, (R)-(4-((1-(3-amino-5-(trifluoromethyl)phenyl)ethyl)amino)-2-methyl-6-(methylamino)quinazolin-7-yl)(1,1-dioxothiomorpholino)methanone] the figure was at most 50 nM; with `CNc1cc2c(N[C@H](C)c3cc(N)cc(C(F)(F)F)c3)nc(C)nc2cc1C(=O)N1CCSCC1` [Example 60, (R)-(4-((1-(3-amino-5-(trifluoromethyl)phenyl)ethyl)amino)-2-methyl-6-(methylamino)quinazolin-7-yl)(thiomorpholino)methanone], at most 50 nM.
Regarding `CNc1cc2c(N[C@H](C)c3cc(N)cc(C(F)(F)F)c3)nc(C)nc2cc1C(=O)N1CCNCC1` [Example 61, (R)-(4-((1-(3-amino-5-(trifluoromethyl)phenyl)ethyl)amino)-2-methyl-6-(methylamino)quinazoline-7-yl)(piperazine-1-yl)methanone], the IC50 was at most 50 nM.
As to `CNc1cc2c(N[C@H](C)c3cc(N)cc(C(F)(F)F)c3)nc(C)nc2cc1C(=O)N1CCC1` [Example 62, (R)-(4-((1-(3-amino-5-(trifluoromethyl)phenyl)ethyl)amino)-2-methyl-6-(methylamino)quinazoline-7-yl)(azetidine-1-yl)methanone], the IC50 fell in the range of 50 to 100 nM.
With `CNc1cc2c(N[C@H](C)c3cc(N)cc(C(F)F)c3F)nc(C)nc2cc1C(=O)N1CC2COCC2C1` (stereo partly drawn) [Example 63, (4-(((R)-1-(5-amino-3-(difluoromethyl)-2-fluorophenyl)ethyl)amino)-2-methyl-6-(methylamino)quinazoline-7-yl)(tetrahydro-1H-furo[3,4-c]pyrrol-5(3H)-yl)methanone] the figure was at most 50 nM.
To `CNc1cc2c(N[C@H](C)c3cc(N)cc(C(F)F)c3F)nc(C)nc2cc1C(=O)N1CCS(=O)(=O)CC1` [Example 64, (R)-(4-((1-(5-amino-3-(difluoromethyl)-2-fluorophenyl)ethyl)amino)-2-methyl-6-(methylamino)quinazoline-7-yl)(1,1-dioxothiomorpholino)methanone] belongs at most 50 nM; to `CNc1cc2c(N[C@H](C)c3cc(C)cc(N)c3)nc(C)nc2cc1C(=O)N1CCOCC1` [Example 65, (R)-(4-((1-(3-amino-5-methylphenyl)ethyl)amino)-2-methyl-6-(methylamino)quinazolin-7-yl)(morpholino)methanone], 50 to 100 nM.
The compound `COCCNc1cc2c(N[C@H](C)c3cc(N)cc(C(F)(F)F)c3)nc(C)nc2cc1C(=O)N1CCS(=O)(=O)CC1` [Example 68, (R)-(4-((1-(3-amino-5-(trifluoromethyl)phenyl)ethyl)amino)-6-((2-methoxyethyl)amino)-2-methylquinazoline-7-yl)(1,1-dioxothiomorpholino)methanone] returned an IC50 of at most 50 nM.
Take `COc1cc2c(N[C@H](C)c3cc(N)cc(C(F)(F)F)c3)nc(C)nc2cc1NC1CCOCC1` [Example 69, (R)-NM-(1-(3-amino-5-(trifluoromethyl)phenyl)ethyl)-6-methoxy-2-methyl-N^7-(tetrahydro-2H-pyran-4-yl)quinazoline-4,7-diamine]: the IC50 is above 100 nM.

(Values after patent US20240067613A1, “NOVEL QUINAZOLINE DERIVATIVES AS SOS1 INHIBITORS AND USE THEREOF” (HANMI PHARMACEUTICAL CO., LTD., priority 2020, published 2024).)
